According to paper PMC11320742, “Radiosynthesis and Evaluation of 11C-Labeled Isoindolone-Based Positive Allosteric Modulators for Positron Emission Tomography Imaging of Metabotropic Glutamate Receptor 2” (ACS Pharmacology & Translational Science, 2024):

Experiments:
mGluR2 [1] = target: T1, mGluR2 (Homo sapiens, UniProt Q14416); test: Counter-screening, mGluR family selectivity; assay type: biochemical
T1 construct: expressed in transfected cells; host or cells: CHO
Experimental: (§1) To determine the binding affinities, saturation binding experiments of the corresponding tritiated ligands were conducted on CHO membranes stably expressing mGluR2. […] Multiparameter optimization (MPO) is a valuable tool to evaluate the BBB permeability of drug candidates. […] To investigate the selectivity of AZ12559322 for mGluR2, further counter-screening of AZ12559322 was conducted, and the results are detailed in Figure 3C.

mGluR3 = mGluR3 (Homo sapiens, UniProt Q14832); test: Counter-screening, mGluR family selectivity; assay type: biochemical
Experimental: as §1

mGluR8 = mGluR8 (Homo sapiens, UniProt O00222); test: Counter-screening, mGluR family selectivity; assay type: biochemical
Experimental: as §1

mGluR5 = mGluR5 (Homo sapiens, UniProt P41594); test: Counter-screening, mGluR family selectivity; assay type: biochemical
Experimental: as §1

mGluR4 = mGluR4 (Homo sapiens, UniProt Q14833); test: Counter-screening, mGluR family selectivity; assay type: biochemical
Experimental: as §1

mGluR7 = mGluR7 (Homo sapiens, UniProt Q14831); test: Counter-screening, mGluR family selectivity; assay type: biochemical
Experimental: as §1

mGluR6 = mGluR6 (Homo sapiens, UniProt O15303); test: Counter-screening, mGluR family selectivity; assay type: biochemical
Experimental: as §1

mGluR1 = mGluR1 (Homo sapiens, UniProt Q13255); test: Counter-screening, mGluR family selectivity; assay type: biochemical
Experimental: as §1

mGluR2 [2] = target: T1, mGluR2; test: Saturation binding of tritiated ligands on CHO membranes stably expressing mGluR2; conditions: for Ki: mGluR2, CHO membranes; for Kd: saturation binding of tritiated ligand, CHO membranes expressing mGluR2
Experimental: as §1

pKa = assay type: physicochemical
Experimental: as §1

CYP3A4 = CYP3A4 (Homo sapiens, UniProt P08684); test: CYP inhibition; assay type: in vitro ADME
CYP2C19 = CYP2C19 (Homo sapiens, UniProt P33261); test: CYP inhibition; assay type: in vitro ADME
mGluR2 [3] = target: T2, mGluR2 (Rattus norvegicus, UniProt P31421); test: In vitro ARG of [3H]AZ12559322 on rat brain tissues (binding data, Figure S1); conditions: determined by in vitro ARG of [3H]AZ12559322 on rat brain tissues
T2 construct: the brain sections of rat or cynomolgus monkey brains in 20 μm thickness; from tissue; host or cells: rat brain sections
Experimental: To determine the binding affinities, saturation binding experiments of the corresponding tritiated ligands were conducted on CHO membranes stably expressing mGluR2. […] The blood–brain barrier permeability (log BB) values of 3a–3c were predicted in the range of −0.14 to −0.51. Multiparameter optimization (MPO) is a valuable tool to evaluate the BBB permeability of drug candidates. In general, CNS MPO scores on a scale between 0 and 6, and the score value ≥4.0 is highly desirable. […] Therefore, AZ12559322 was selected as the most promising mGluR2 PAM for further ADME profiling. To investigate the selectivity of AZ12559322 for mGluR2, further counter-screening of AZ12559322 was conducted, and the results are detailed in Figure 3C.
The tritium-labeled ligand [^3H]AZ12559322 for ARG studies was prepared by AstraZeneca.[23] Briefly, the brain sections of rat or cynomolgus monkey brains in 20 μm thickness were warmed to room temperature in a vacuum chamber over 3 h on the day of the experiment.[52] All sections were incubated in 50 mM Tris HCl, 5 mM MgCl2, and 0.9% NaCl (pH 7.4) for 5 min at room temperature. The brain sections were dried and incubated with [^3H]AZ12559322 in the above buffer for 30 min at ambient temperature. […]

hERG channel = hERG channel (Homo sapiens, UniProt Q12809); test: hERG channel inhibition; assay type: biochemical
CYP1A2 = target: T3, CYP1A2 (Homo sapiens, UniProt P05177); test: CYP inhibition; assay type: in vitro ADME
T3 sequence (P05177 1-516): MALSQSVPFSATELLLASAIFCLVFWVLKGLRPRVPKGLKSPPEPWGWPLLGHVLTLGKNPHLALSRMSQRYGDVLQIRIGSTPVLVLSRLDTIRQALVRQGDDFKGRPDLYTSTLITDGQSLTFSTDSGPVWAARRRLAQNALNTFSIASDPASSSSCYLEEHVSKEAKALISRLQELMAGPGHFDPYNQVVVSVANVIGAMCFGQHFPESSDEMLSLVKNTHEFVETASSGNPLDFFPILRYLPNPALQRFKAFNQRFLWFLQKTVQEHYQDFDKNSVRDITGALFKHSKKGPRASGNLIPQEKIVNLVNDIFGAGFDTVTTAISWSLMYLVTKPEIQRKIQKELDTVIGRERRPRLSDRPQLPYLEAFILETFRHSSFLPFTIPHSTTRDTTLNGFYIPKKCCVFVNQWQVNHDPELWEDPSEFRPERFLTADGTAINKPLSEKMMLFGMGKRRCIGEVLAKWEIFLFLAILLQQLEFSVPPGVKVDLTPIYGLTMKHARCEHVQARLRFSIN

CYP2D6 = CYP2D6 (Homo sapiens, UniProt P10635); test: CYP inhibition; assay type: in vitro ADME
CYP2C9 = CYP2C9 (Homo sapiens, UniProt P11712); test: CYP inhibition; assay type: in vitro ADME
mGluR2 [4] = test: In vitro autoradiography of NHP prefrontal cortex with [3H]AZ12559322 (blocking); assay type: binding, cynomolgus monkey; conditions: blocker 5 μM, n = 2
Experimental: (§2) Encouraged by the promising ligand–protein binding ability of AZ12559322, in vitro autoradiography (ARG) studies were conducted on rat brain tissues to assess the binding specificity of [^3H]AZ12559322. Consistent with previous reports of the regional mGluR2 expression in the rat brain,[45] […] Subsequently, in vitro ARG studies with brain regions from cynomolgus monkeys were conducted to confirm the specificity in higher species. […] Subsequent immunohistochemical analyses verified that […] was binding to the regions with high expression of mGluR2 (see Figure S2 in the Supporting Information). Altogether, these studies indicated high mGluR2 in vitro binding specificity of AZ12559322 on rat and NHP brain tissue sections and positive allosteric mechanism of action.
Figure 6 In vitro autoradiography and quantitative analyses of NHP prefrontal cortex with [^3H]AZ12559322 (n = 2). Total binding and nonspecific binding in the presence of 5 μM of LY-487379 or AZD8418. *p < 0.05.
The tritium-labeled ligand [^3H]AZ12559322 for ARG studies was prepared by AstraZeneca.[23] Briefly, the brain sections of rat or cynomolgus monkey brains in 20 μm thickness were warmed to room temperature in a vacuum chamber over 3 h on the day of the experiment.[52] All sections were incubated in 50 mM Tris HCl, 5 mM MgCl2, and 0.9% NaCl (pH 7.4) for 5 min at room temperature. […]

mGluR2 [5] = test: In situ [35S]GTPγS autoradiography in NHP brain tissue; assay type: biochemical; conditions: in the presence of agonist LY379268
Experimental: as §2
(§3) The in situ GTPγS ARG studies in the rat and NHP brain tissues were conducted according to previous reports.[54] Briefly, […] thick brain tissue sections were incubated twice in assay buffer, pH 7.5 for 10 min at 25 °C and once in assay buffer with 2 mM GDP for 15 min at 25 °C. Slides were then incubated in an assay buffer containing 0.04 nM [^35S]GTPgS in the presence or absence of LY379268 and AZD8529 for 2 h at 25 °C. The incubation was stopped by washing twice for 3 min in ice-cold 50 mM Tris–HCl and a quick dip in ice-cold distilled water. […] Films were developed by standard techniques, digitized, and analyzed.

mGluR2 [6] = target: T2, mGluR2; test: In situ [35S]GTPγS autoradiography in rat brain tissue; assay type: biochemical; conditions: in the presence of agonist LY379268
Experimental: as §2, §3

mGluR2 [7] = target: T2, mGluR2; test: In vitro autoradiography of rat brain tissue with [3H]AZ12559322 (baseline and blockade); assay type: binding; conditions: baseline; high in prefrontal cortex, cerebral cortex, hippocampus; low in thalamus
Experimental: as §2
Figure 5 In vitro autoradiography of rat brain tissue with [^3H]AZ12559322. (A) Autoradiograms after incubation with either [^3H]AZ12559322 only (baseline) or 10 μM AZ12522721 (blockade). (B) Quantitative analyses of the autoradiograms under baseline and blocking conditions (n = 4). ***p ≤ 0.001, ns = nonsignificant.
The tritium-labeled ligand [^3H]AZ12559322 for ARG studies was prepared by AstraZeneca.[23] Briefly, the brain sections of rat or cynomolgus monkey brains in 20 μm thickness were warmed to room temperature in a vacuum chamber over 3 h on the day of the experiment.[52] […]

mGluR2 [8] = test: PET imaging in NHP; assay type: in vivo; conditions: cynomolgus monkey, IV injection, baseline
Experimental: With all three radioligands in hand, we sought to evaluate the feasibility of these radioligands for quantifying mGluR2 PAM occupancy in the NHP brain. PET imaging studies of [^11C]AZ12559322, [^11C]AZ12592068, and [^11C]AZ12588953 were performed in a cynomolgus monkey. Radioactivity was acquired for 120 min after IV injection of the respective radioligand. […] Further structural modification of these isoindolone derivatives is necessary to enhance brain exposure and provide a suitable radioligand for in vivo imaging.
PET imaging studies were conducted in one anesthetized healthy cynomolgus monkey and are fully detailed in Dahl et al.[53] The study was approved by the Stockholm Animal Research Ethical Committee (Dnr. N245/04). […] The head was immobilized with a fixation device, and body temperature was maintained by Bair Hugger model 505 (Arizant Healthcare, MN, USA) and continuously monitored by an esophageal thermometer. ECG, heart rate, blood pressure, respiratory rate, and oxygen saturation were continuously monitored throughout the experiments. […] Radioactivity in the brain was measured continuously for 123 min using the high-resolution research tomograph (HRRT; Siemens Molecular Imaging, Knoxville, TN, USA) according to a preprogrammed series of 34 frames.

T2 sequence (P31421 19-872): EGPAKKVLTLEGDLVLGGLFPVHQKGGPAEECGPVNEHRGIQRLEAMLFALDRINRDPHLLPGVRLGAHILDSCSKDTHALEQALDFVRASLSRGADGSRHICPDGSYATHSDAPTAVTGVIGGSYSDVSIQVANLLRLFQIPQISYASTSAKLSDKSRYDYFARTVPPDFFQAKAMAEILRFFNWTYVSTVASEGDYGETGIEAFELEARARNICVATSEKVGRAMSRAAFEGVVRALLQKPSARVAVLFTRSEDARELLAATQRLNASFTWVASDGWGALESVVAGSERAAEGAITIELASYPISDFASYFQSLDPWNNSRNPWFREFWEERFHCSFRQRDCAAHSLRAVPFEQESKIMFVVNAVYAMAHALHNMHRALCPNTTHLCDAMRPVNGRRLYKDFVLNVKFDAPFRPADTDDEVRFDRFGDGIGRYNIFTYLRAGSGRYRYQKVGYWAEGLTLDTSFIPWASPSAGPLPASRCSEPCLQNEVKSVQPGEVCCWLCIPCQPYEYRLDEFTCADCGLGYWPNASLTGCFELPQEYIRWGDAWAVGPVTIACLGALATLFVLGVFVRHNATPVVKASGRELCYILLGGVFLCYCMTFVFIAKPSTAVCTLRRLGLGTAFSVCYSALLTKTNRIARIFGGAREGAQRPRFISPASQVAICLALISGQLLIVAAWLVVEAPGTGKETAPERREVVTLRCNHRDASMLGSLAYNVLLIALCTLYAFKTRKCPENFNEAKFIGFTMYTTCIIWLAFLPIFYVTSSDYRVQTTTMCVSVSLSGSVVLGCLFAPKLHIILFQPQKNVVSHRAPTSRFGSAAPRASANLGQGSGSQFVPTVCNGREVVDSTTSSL
T1 sequence (Q14416 19-872): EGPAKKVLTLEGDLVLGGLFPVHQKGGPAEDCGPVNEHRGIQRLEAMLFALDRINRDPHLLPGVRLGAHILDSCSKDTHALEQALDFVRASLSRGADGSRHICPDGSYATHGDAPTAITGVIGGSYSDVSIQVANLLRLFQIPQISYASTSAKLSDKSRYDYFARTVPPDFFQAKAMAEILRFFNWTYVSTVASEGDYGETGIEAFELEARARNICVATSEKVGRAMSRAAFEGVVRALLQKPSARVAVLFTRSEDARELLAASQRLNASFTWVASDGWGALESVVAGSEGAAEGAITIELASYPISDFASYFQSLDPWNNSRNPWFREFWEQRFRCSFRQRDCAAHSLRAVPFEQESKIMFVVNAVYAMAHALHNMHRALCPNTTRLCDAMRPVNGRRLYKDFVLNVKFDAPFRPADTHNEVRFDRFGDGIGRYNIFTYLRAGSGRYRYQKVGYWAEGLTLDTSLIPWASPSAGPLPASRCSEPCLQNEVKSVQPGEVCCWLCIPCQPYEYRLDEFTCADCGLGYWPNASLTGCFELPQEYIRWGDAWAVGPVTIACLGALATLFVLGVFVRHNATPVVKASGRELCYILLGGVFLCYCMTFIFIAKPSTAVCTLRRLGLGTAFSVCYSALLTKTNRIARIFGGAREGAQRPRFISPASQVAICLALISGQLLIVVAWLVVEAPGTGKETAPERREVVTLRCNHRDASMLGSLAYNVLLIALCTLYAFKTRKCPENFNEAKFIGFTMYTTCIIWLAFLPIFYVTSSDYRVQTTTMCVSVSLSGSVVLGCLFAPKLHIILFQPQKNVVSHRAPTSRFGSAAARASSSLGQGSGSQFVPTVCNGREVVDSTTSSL
CYP2C19, sequence (P33261 whole entry): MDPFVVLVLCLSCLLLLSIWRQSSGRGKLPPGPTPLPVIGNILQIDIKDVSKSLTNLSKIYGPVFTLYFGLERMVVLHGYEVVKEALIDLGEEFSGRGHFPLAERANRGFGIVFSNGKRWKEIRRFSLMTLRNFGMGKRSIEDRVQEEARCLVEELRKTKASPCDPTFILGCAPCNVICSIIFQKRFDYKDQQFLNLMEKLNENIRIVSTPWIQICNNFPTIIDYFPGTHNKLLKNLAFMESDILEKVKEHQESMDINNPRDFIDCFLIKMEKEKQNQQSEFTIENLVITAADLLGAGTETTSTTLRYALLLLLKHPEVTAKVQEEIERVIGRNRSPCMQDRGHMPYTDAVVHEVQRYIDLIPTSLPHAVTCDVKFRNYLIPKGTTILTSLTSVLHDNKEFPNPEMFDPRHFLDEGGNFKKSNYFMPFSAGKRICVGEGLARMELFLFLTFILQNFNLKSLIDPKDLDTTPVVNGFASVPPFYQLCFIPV
CYP2D6, sequence (P10635 whole entry): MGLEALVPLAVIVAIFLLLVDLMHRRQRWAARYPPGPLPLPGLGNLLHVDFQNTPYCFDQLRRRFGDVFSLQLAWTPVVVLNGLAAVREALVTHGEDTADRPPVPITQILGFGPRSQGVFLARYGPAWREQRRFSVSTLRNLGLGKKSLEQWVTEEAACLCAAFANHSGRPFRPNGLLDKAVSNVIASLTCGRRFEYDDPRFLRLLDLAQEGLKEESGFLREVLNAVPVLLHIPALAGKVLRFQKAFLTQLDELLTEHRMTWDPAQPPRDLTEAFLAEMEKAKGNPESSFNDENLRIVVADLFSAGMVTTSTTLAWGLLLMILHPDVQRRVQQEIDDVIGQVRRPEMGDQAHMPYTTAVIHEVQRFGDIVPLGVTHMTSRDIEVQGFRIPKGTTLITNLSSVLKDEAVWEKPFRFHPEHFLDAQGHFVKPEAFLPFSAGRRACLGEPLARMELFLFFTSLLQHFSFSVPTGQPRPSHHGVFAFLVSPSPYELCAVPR
CYP2C9, sequence (P11712 whole entry): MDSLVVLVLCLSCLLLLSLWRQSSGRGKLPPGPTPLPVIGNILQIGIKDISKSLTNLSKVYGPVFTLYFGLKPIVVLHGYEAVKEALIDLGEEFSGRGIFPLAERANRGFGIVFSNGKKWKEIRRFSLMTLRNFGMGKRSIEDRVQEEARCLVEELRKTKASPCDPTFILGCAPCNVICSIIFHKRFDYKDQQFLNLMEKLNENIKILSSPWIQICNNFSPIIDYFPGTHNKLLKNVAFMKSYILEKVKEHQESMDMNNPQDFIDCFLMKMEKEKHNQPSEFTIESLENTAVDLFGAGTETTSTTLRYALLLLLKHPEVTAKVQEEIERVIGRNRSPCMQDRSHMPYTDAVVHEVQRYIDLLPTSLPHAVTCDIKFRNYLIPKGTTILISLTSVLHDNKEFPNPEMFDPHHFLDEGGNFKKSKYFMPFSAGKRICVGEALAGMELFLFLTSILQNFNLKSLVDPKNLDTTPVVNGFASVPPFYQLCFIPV
CYP3A4, sequence (P08684 whole entry): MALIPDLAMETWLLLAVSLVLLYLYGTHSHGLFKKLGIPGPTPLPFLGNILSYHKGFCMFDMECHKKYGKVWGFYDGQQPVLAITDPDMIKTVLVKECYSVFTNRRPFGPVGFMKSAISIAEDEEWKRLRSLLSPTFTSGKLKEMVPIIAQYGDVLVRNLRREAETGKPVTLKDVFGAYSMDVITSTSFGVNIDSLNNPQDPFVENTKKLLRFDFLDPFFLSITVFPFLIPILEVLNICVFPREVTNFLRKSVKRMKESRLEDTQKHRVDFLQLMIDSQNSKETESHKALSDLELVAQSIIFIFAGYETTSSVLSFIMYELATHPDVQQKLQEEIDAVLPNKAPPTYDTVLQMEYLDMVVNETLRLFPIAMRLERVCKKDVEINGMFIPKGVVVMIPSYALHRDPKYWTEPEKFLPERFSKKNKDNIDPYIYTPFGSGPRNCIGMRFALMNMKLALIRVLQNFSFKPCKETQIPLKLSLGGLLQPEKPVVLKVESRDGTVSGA
mGluR1, sequence (Q13255 19-1194): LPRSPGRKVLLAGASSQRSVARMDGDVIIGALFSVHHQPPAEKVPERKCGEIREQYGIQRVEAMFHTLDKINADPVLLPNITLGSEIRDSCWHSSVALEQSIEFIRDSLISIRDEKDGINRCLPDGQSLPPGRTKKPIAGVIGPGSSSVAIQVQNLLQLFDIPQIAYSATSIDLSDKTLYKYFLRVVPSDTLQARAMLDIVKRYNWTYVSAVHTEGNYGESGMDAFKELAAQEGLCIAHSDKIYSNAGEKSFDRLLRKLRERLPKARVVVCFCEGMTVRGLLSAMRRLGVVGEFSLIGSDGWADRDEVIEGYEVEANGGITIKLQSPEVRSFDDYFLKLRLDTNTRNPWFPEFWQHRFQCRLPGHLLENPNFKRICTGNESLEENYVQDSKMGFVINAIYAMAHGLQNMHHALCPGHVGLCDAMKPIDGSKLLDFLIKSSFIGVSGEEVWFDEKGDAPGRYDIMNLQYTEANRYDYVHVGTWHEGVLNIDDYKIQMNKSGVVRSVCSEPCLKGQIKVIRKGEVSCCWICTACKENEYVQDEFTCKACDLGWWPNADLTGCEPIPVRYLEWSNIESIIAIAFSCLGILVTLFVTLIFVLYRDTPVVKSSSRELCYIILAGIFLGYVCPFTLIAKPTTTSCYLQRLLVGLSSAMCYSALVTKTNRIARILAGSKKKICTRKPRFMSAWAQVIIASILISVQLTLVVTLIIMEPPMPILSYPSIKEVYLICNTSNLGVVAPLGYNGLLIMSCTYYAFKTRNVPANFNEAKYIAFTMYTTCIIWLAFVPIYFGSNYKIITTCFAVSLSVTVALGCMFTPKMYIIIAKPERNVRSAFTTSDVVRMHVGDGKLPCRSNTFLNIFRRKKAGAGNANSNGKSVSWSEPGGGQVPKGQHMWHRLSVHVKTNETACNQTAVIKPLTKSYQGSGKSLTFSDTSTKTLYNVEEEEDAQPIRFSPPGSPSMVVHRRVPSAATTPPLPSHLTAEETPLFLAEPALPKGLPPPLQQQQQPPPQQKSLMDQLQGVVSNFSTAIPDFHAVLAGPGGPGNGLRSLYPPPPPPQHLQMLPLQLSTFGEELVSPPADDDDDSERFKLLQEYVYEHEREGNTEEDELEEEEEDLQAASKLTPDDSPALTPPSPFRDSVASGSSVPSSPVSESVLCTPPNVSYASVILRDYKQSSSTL

Cc1cc(-c2cccc(NS(C)(=O)=O)c2)cc2c1C(=O)N(C(C)C)C2 [AZ12559322, N-[3-(2-isopropyl-7-methyl-1-oxo-2,3-dihydro-1H-isoindol-5-yl)phenyl]methanesulfonamide]
IC50 (mGluR2 [1]): 4.7 nM
Selectivity for mGluR2 over all other mGluR subtypes (mGluR2 [1]; against all other mGluRs): > 4000 fold
IC50 (mGluR3): > 25000 nM
IC50 (mGluR8): > 20300 nM
IC50 (mGluR5): > 30000 nM
IC50 (mGluR4): > 23600 nM
IC50 (mGluR7): > 30000 nM
IC50 (mGluR6): > 30000 nM
IC50 (mGluR1): > 30000 nM
Ki (mGluR2 [2]): 2.68 nM
Kd (mGluR2 [2]): 11 nM
Specific binding% (mGluR2 [2]; specific binding to mGluR2 in vitro): 89%
pKa (pKa): 8.46
inhibition at 1 µM (CYP3A4; at 1 μM): 0%
inhibition at 10 µM (CYP3A4; at 10 μM): 12%
inhibition at 1 µM (CYP2C19; at 1 μM): 13%
inhibition at 10 µM (CYP2C19; at 10 μM): 51%
Kd (mGluR2 [3]): 1.31 nM
IC50 (hERG channel): 9350 nM
inhibition at 10 µM (CYP1A2): 37%
inhibition at 1 µM (CYP2D6; at 1 μM): 0%
inhibition at 10 µM (CYP2D6; at 10 μM): 11%
inhibition at 1 µM (CYP2C9; at 1 μM): 8%
inhibition at 10 µM (CYP2C9; at 10 μM): 46%

Cc1cc(-c2cccc(NS(C)(=O)=O)c2)cc2c1C(=O)N(C1CCC1)C2 [AZ12588953, N-(3-(2-cyclobutyl-7-methyl-1-oxoisoindolin-5-yl)phenyl)methanesulfonamide]
Ki (mGluR2 [2]): 2.02 nM
Kd (mGluR2 [2]): 4.7 nM

Cc1cc(-c2cccc(NS(C)(=O)=O)c2)cc2c1C(=O)N([C@@H](C)C(F)(F)F)C2 [AZ12592068, (S)-N-(3-(2-(1,1,1-trifluoropropan-2-yl)-7-methyl-1-oxoisoindolin-5-yl)phenyl)methanesulfonamide]
Ki (mGluR2 [2]): 0.71 nM
Kd (mGluR2 [2]): 2 nM

C[C@@H](C1CC1)N1Cc2cc(-c3cc(C(=O)N(C)C)no3)cc(Cl)c2C1=O [AZD8418]
Diminished [3H]AZ12559322 binding in NHP prefrontal cortex (mGluR2 [4]): 40–45%

Cc1cc(-c2nc(CN3CCNCC3)no2)cc2c1C(=O)N(Cc1ccc(OC(F)(F)F)cc1)C2 [AZD8529]
Modulation in in situ GTPγS ARG (mGluR2 [5]): positive modulation
Modulation in in situ GTPγS ARG (mGluR2 [6]): positive modulation

COc1ccccc1Oc1ccc(N(Cc2cccnc2)S(=O)(=O)CC(F)(F)F)cc1 [LY-487379]
Diminished [3H]AZ12559322 binding in NHP prefrontal cortex (mGluR2 [4]): 40–45%

Cc1cc(-c2cccc(NS(C)(=O)=O)c2)cc2c1C(=O)N(C(C)C)C2 [[^3H]AZ12559322, [^3H]-N-[3-(2-Isopropyl-7-methyl-1-oxo-2,3-dihydro-1H-isoindol-5-yl)phenyl]methanesulfonamide]
Regional distribution of radioligand binding in rat brain sections (mGluR2 [7]): heterogeneous distribution

CC(C)N1Cc2cc(-c3cccc(NS(C)(=O)=O)c3)cc([11CH3])c2C1=O [[^11C]AZ12559322]
Brain exposure in PET imaging (mGluR2 [8]): low brain uptake
